Common to all, as to format: functional, cell-based
Test [1] in a line: Cytotoxicity against human PANC1 cells after 72 hrs by MTT assay. The following applies: PANC-1, 72 h. In general terms: Tetrazolium dyes change colour on reduction, which living cells bring about.
Another test relates to MDA-MB-231. The test can be described thus: Cytotoxicity against human MDA-MB-231 cells after 72 hrs by MTT assay. The following applies: MDA-MB-231, 72 h.
For a further test, the system named is HPAC. The test is described as follows: Cytotoxicity against human HPAC cells after 72 hrs by MTT assay.
For the next test, the system named is SW1990. The test is described as follows: Cytotoxicity against human SW1990 cells after 72 hrs by MTT assay. The conditions noted are these: SW1990, 72 h.

The structures appear in SMILES notation. pIC50: −log10 of the molar value.

A word on the pIC50: it is the negative decadic logarithm of the IC50, by convention in mol/L. For `COC(=O)[C@H](Cc1cn(C)cn1)NC(=O)[C@@H](NC(=O)Nc1cc(C(F)(F)F)cc(C(F)(F)F)c1)C(C)C`, the pIC50 in test [1] was 4.61; with MDA-MB-231, 4.81; with HPAC, 4.76; in the test on SW1990, 4.75.

As to `COC(=O)[C@H](Cc1cn(C)cn1)NC(=O)[C@H](C)NC(=O)Nc1cc(C(F)(F)F)cc(C(F)(F)F)c1`, the negative logarithm of the IC50 (pIC50) in test [1] was 4.30.

Take `COC(=O)[C@H](Cc1cn(C)cn1)NC(=O)[C@H](CC(C)C)NC(=O)Nc1cc(C(F)(F)F)cc(C(F)(F)F)c1`: the pIC50 in test [1] was 4.77; with MDA-MB-231, 4.97; with HPAC it was 4.88; in the test with SW1990 it was 5.04.

`CC[C@H](C)[C@H](NC(=O)Nc1cc(C(F)(F)F)cc(C(F)(F)F)c1)C(=O)N[C@@H](Cc1cn(C)cn1)C(=O)OC`: the negative-log IC50 (pIC50) is 5.00 in test [1], 5.19 with MDA-MB-231, 5.12 in the test on HPAC and 5.08 in the test with SW1990.

In test [1], `CC(C)[C@H](NC(=O)Nc1cc(C(F)(F)F)cc(C(F)(F)F)c1)C(=O)N[C@@H](Cc1cn(C)cn1)C(=O)O` showed a pIC50 of less than 4.00.

In test [1], `C[C@H](NC(=O)Nc1cc(C(F)(F)F)cc(C(F)(F)F)c1)C(=O)N[C@@H](Cc1cn(C)cn1)C(=O)O` gave a pIC50 of less than 4.00.

On to `COC(=O)[C@H](Cc1cn(C)cn1)NC(=O)[C@H](Cc1ccccc1)NC(=O)Nc1cc(C(F)(F)F)cc(C(F)(F)F)c1`, for which the negative logarithm of the IC50 (pIC50) is 4.79 in test [1], 5.17 in the test with MDA-MB-231, 5.02 in the test on HPAC and 4.97 in the test with SW1990.

In test [1], `COC(=O)[C@H](Cc1cn(C)cn1)NC(=O)[C@H](Cc1c[nH]c2ccccc12)NC(=O)Nc1cc(C(F)(F)F)cc(C(F)(F)F)c1` gave a pIC50 of 4.50.

In test [1], `COC(=O)[C@H](Cc1cn(C)cn1)NC(=O)[C@H](CC(=O)OCc1ccccc1)NC(=O)Nc1cc(C(F)(F)F)cc(C(F)(F)F)c1` showed a pIC50 of 4.16.

As to `COC(=O)[C@H](Cc1cn(C)cn1)NC(=O)[C@H](CCC(=O)OCc1ccccc1)NC(=O)Nc1cc(C(F)(F)F)cc(C(F)(F)F)c1`, the negative logarithm of the IC50 (pIC50) in test [1] is 4.07.

As to `CCn1cnc(C[C@H](NC(=O)[C@@H](NC(=O)Nc2cc(C(F)(F)F)cc(C(F)(F)F)c2)C(C)C)C(=O)OC)c1`, the pIC50 was 4.95 in test [1], 5.12 in the test with MDA-MB-231, 5.02 in the test with HPAC and 5.03 in the test with SW1990.

With `COC(=O)[C@H](Cc1cn(C)cn1)NC(=O)[C@@H](NC(=O)Nc1cc(C(F)(F)F)cc(C(F)(F)F)c1)C(C)(C)C`, the pIC50 in test [1] was 5.06; in the test with MDA-MB-231 it was 5.03; with HPAC, 5.01; with SW1990, 5.07.

`COC(=O)[C@H](Cc1c[nH]cn1)NC(=O)[C@@H](NC(=O)Nc1cc(C(F)(F)F)cc(C(F)(F)F)c1)C(C)C`: the pIC50 in test [1] is 4.01.

On to `COC(=O)[C@H](Cc1cn(C)cn1)NC(=O)[C@@H](NC(=O)Nc1cccc(C(F)(F)F)c1)C(C)C`, for which the negative logarithm of the IC50 (pIC50) in test [1] was 4.21.

Values taken from ChEMBL document CHEMBL3397008, “Design, synthesis and evaluation of XZH-5 analogues as STAT3 inhibitors” (Bioorg Med Chem, 2015).
